Data taken from patent US9868737B2, “Pyridino[1,2-A]pyrimidone analogue used as MTOR/P13K inhibitor” (CISEN PHARMACEUTICAL CO., LTD., priority 2014, dated 2018).
Read-outs that look alike come from different tables or passages of the source.

Key:
[1] = target: T1, PI3K (p110α) kinase (Homo sapiens, UniProt P42336); experiment: PI3K (p110α) kinase assay (PI3K HTRF Assay); assay type: biochemical; conditions: in vitro enzyme activity assay, 10 μM PIP2, read-out: PI3K (p110α) enzyme activity_IC50
T1 construct: made in house
T1 sequence (P42336 whole entry): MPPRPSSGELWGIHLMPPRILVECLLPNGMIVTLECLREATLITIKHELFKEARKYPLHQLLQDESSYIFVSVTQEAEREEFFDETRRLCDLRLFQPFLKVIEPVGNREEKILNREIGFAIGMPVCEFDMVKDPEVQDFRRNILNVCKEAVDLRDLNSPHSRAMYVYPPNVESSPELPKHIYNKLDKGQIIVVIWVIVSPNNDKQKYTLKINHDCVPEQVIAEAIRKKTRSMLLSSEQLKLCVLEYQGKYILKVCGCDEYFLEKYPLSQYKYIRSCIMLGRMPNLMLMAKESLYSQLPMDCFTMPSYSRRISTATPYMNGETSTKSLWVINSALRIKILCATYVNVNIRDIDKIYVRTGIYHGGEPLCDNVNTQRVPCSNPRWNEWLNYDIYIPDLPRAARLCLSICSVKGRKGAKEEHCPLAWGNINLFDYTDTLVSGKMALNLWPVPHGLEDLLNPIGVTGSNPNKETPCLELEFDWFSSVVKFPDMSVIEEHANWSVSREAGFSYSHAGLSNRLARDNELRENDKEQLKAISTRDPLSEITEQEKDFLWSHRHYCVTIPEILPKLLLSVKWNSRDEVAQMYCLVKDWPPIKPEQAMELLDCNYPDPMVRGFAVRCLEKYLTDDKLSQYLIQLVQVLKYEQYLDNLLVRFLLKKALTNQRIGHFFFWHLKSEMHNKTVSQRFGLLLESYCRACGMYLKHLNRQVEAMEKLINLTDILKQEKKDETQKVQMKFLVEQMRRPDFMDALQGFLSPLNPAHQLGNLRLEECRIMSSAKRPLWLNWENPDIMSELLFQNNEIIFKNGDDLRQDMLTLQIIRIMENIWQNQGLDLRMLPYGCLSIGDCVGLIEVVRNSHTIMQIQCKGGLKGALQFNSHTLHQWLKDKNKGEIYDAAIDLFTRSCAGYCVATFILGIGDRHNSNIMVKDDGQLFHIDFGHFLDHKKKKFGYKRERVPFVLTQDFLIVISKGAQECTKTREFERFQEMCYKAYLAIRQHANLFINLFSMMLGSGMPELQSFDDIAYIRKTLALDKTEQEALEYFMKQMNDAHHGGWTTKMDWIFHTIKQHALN
Source text: Conclusion: The compounds of the present invention have significant inhibitory effect on mTOR/PI3K. Example In Vitro Enzyme Activity Assay 1. The experimental procedures and methods of PI3K (p110α) kinase assay: 1) Experimental Objective
The objective was to evaluate the inhibitory effect of the subject samples on PI3K (p110α) kinase activity at molecular level.
PerkinElmer Envision 2104 Multilabel Reader.
PI 3-Kinase HTRF Assay (384 wells) was purchased from Upstate (Millipore) company: PI3K (p110α) kinase was made in our lab.
c) Experimental procedures
Each solution was prepared according to the instructions provided in the Kinase PI 3-Kinase HTRF Assay. The kinase reaction was carried out in white 384-well plates (Proxiplate-384 plus), 0.5 μl of DMSO (the concentration was consistent with the highest concentration of DMSO for the test compounds) was added to each of the two control wells with and without enzyme, and then 0.5 μl of a series of different concentrations of the test compounds was added to each well to be tested. The kinase reaction liquid (10 μM substrate PIP2, 0.5 ng PI3K (p110α)) was added to the control well containing enzyme and the test wells, while only working reaction liquid (10 μM substrate PIP2) was added to the control well without enzyme, and finally, 5 μM ATP working reaction liquid was added to activate the reaction. After the reaction was carried out at room temperature for 30 min, the stop solution was added to each well to terminate the kinase reaction. After the mixture was fully mixed, the detection liquid was added to each well and fully mixed. The plate was sealed with Parafilm and placed in the dark. After incubated overnight, the mixture was detected.
The IC50 value was calculated through the GraphPad software after plotting the relative inhibitory rate versus concentration.

[2] = tested on: MCF-7 cells; experiment: In vitro test of cell activity (MCF-7 cells, insulin stimulation, ELISA-One fluorescence); assay type: cell-based; conditions: Homo sapiens, MCF7, MCF-7 cells; for inhibition at 0.25 µM: conc. 0.25 μM; for inhibition at 0.5 µM: conc. 0.5 μM
In short: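 MCF-7 cells, seeded at 2.5×10^4/well in 10% FBS medium, were given compound in serum-free medium for 2 h at one concentration (screen) or a series (IC50). Insulin stimulation followed at […] final for 30 min; lysates assayed by ELISA-One sandwich immunoassay with fluorescence read-out.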

Row | IC50 [1] | IC50 ([2]; read-out: IC50 p-AKT) | SMILES | also measured
1 | 1 to 10 nM | – | COCCOc1cnc2ccc(-c3cnc(OC)c(NS(=O)(=O)c4ccc(F)cc4C4CC4)c3)cn2c1=O [compound 284] | –
2 | ≤ 1 nM | ≤ 50 nM | COCCOc1cnc2ccc(-c3cnc(OC)c(NS(=O)(=O)c4ccc(C)cc4Cl)c3)cn2c1=O [compound 275] | –
3 | ≤ 1 nM | ≤ 50 nM | COc1ncc(-c2ccc3ncc(OCC4COC4)c(=O)n3c2)cc1NS(=O)(=O)c1ccc(C)cc1Cl [compound 277] | –
4 | 1 to 10 nM | – | COCCOc1cnc2ccc(-c3cnc(OC)c(NS(=O)(=O)c4cc(C)c(Cl)cc4Cl)c3)cn2c1=O [compound 258] | –
5 | ≤ 1 nM | ≤ 50 nM | COc1ncc(-c2ccc3ncc(OCC4COC4)c(=O)n3c2)cc1NS(=O)(=O)c1c(Cl)cccc1Cl [compound 249] | –
6 | ≤ 1 nM | ≤ 50 nM | COCCOc1cnc2ccc(-c3cnc(OC)c(NS(=O)(=O)c4c(Cl)cccc4Cl)c3)cn2c1=O [compound 245] | –
7 | ≤ 1 nM | 50 to 100 nM | COCCOc1cnc2ccc(-c3cnc(OC)c(NS(=O)(=O)c4cc(C)ccc4C)c3)cn2c1=O [compound 262] | –
8 | 1 to 10 nM | – | COCCOc1cnc2ccc(-c3cnc(OC)c(NS(=O)(=O)n4nc(C)cc4C)c3)cn2c1=O [compound 283] | –
9 | 1 to 10 nM | 100 to 250 nM | COCCOc1cnc2ccc(-c3cnc(OC)c(NS(=O)(=O)c4c(C)cc(C)cc4C)c3)cn2c1=O [compound 268] | –
10 | ≤ 1 nM | 50 to 100 nM | COc1ncc(-c2ccc3ncc(OCC4COC4)c(=O)n3c2)cc1NS(=O)(=O)c1ccc(F)c(F)c1 [compound 250] | –
11 | ≤ 1 nM | 100 to 250 nM | COCCOc1cnc2ccc(-c3cnc(OC)c(NS(=O)(=O)c4c(F)cccc4F)c3)cn2c1=O [compound 265] | –
12 | ≤ 1 nM | 100 to 250 nM | COc1ncc(-c2ccc3ncc(OCC4COC4)c(=O)n3c2)cc1NS(=O)(=O)c1ccc(C)cc1C [compound 251] | –
13 | ≤ 1 nM | 100 to 250 nM | COCCOc1cnc2ccc(-c3cnc(OC)c(NS(=O)(=O)c4cc(F)ccc4C)c3)cn2c1=O [compound 260] | –
14 | ≤ 1 nM | 100 to 250 nM | COc1ncc(-c2ccc3ncc(OCCOCC(F)(F)F)c(=O)n3c2)cc1NS(=O)(=O)c1ccc(F)cc1Cl [compound 242] | –
15 | ≤ 1 nM | 100 to 250 nM | COCCOc1cnc2ccc(-c3cnc(OC)c(NS(=O)(=O)c4ccc(F)c(F)c4)c3)cn2c1=O [compound 246] | –
16 | ≤ 1 nM | ≤ 50 nM | COc1ncc(-c2ccc3ncc(OCC4COC4)c(=O)n3c2)cc1NS(=O)(=O)c1ccccc1Cl [compound 257] | –
17 | 1 to 10 nM | > 250 nM | COCCOc1cnc2ccc(-c3cnc(OC)c(NS(=O)(=O)c4ccc(F)cc4C)c3)cn2c1=O [compound 252] | –
18 | ≤ 1 nM | 100 to 250 nM | COCCOc1cnc2ccc(-c3cnc(OC)c(NS(=O)(=O)c4cccc(C)c4)c3)cn2c1=O [compound 247] | –
19 | ≤ 1 nM | – | COCCOc1cnc2ccc(-c3cnc(OC)c(NS(=O)(=O)c4cnc(C)cc4C)c3)cn2c1=O [compound 282] | –
20 | – | – | COc1ncc(-c2ccc3nc(C)cc(=O)n3c2)cc1NS(=O)(=O)c1ccc(F)cc1Cl [compound 222] | inhibition at 0.25 µM ([2]; read-out: % inhibition AKT): -26.7%; inhibition at 0.25 µM ([2]; read-out: % inhibition p70s6k): 2%
21 | – | ≤ 50 nM | COc1ncc(-c2ccc3ncc(C)c(=O)n3c2)cc1NS(=O)(=O)c1ccccc1F [compound 84] | inhibition at 0.5 µM ([2]; read-out: % inhibition AKT): 93.8%; inhibition at 0.5 µM ([2]; read-out: % inhibition p70s6k): 88.7%; IC50 ([2]; read-out: IC50 p-p70S6K): 50 to 100 nM
22 | – | 50 to 100 nM | COCCOc1cnc2ccc(-c3cnc(OC)c(NS(=O)(=O)c4ccc(F)c(F)c4F)c3)cn2c1=O [compound 274] | –
23 | – | ≤ 50 nM | COCOc1cnc2ccc(-c3cnc(OC)c(NS(=O)(=O)c4sc(C)nc4C)c3)cn2c1=O [compound 181] | –
24 | – | ≤ 50 nM | COc1ncc(-c2ccc3ncc(OCC(C)(C)OC)c(=O)n3c2)cc1NS(=O)(=O)c1sc(C)nc1C [compound 209] | –
25 | 1 to 10 nM | – | COCCOc1cnc2ccc(-c3cnc(OC)c(NS(=O)(=O)c4cc(C)c(Cl)cc4F)c3)cn2c1=O [compound 269] | –
